Columns and labels:
Assay type in all cases: cell-based, C57BL/6 mice
Arid5A mRNA = Arid5A mRNA expression by qPCR in LPS-stimulated peritoneal macrophages; conditions: test agent 20 μM, LPS (1 g/mL), 2 hours after LPS stimulation, vs absence of CPZ (FIG. 9)
Experimental: (§1) Peritoneal macrophages from C57BL/6 mice (aged 6 to 8 weeks) were stimulated with LPS ([…]) in the presence or absence of a test agent (20 μM). The relative expression levels of mRNAs of Arid5A, IL-6, and TNF-α were determined in the stimulated peritoneal macrophages by quantitative PCR (qPCR). The expression level of Arid5A mRNA was determined 2 hours after LPS stimulation. The expression levels of IL-6 mRNA and TNF-α mRNA were determined 2 hours, 6 hours, 12 hours, and 24 hours after LPS stimulation. FIGS. 9 to 11 show the results when chlorpromazine (CPZ) was used as a test agent.

IL-6 mRNA = IL-6 mRNA expression by qPCR in LPS-stimulated peritoneal macrophages; conditions: test agent 20 μM, LPS (1 g/mL), vs absence of CPZ (FIG. 10)
Experimental: as §1

TNF-α mRNA = TNF-α mRNA expression by qPCR in LPS-stimulated peritoneal macrophages; conditions: test agent 20 μM, LPS (1 g/mL), determined 2, 6, 12 and 24 hours after LPS stimulation (FIG. 11)
Experimental: as §1

For `CN(C)CCCN1c2ccccc2Sc2ccc(Cl)cc21` [CPZ, chlorpromazine], which “expression of Arid5A mRNA” value (Arid5A mRNA) is on record?
Its value is “markedly suppressed”.

What about the “expression of IL-6 mRNA” value (IL-6 mRNA; 2 hours after LPS stimulation) of the same molecule?
Its value is “markedly suppressed”.

And the “expression of IL-6 mRNA” value (IL-6 mRNA; 6 hours after LPS stimulation)?
The value was “markedly suppressed”.

What about the “expression of TNF-α mRNA” value (TNF-α mRNA) of the same molecule?
Its value is “no effect”.
